{"source": "ChEMBL document CHEMBL5678796", "about": "“A highly potent and selective farnesyltransferase inhibitor ABT-100 in preclinical studies” (Anticancer Drugs, 2005)", "key": {"[1]": {"assay": "Inhibition of FTase in human HCT-15 cells expressing high level of P-gp1 using Ras as substrate assessed as inhibition of substrate post-translation processing in presence of 10% FBS by immunoblot analysis", "format": "cell-based"}, "HCT-116 [2]": {"test_system": "HCT-116", "assay": "Antitumor activity against human HCT-116 cells xenografted in nu/nu CD1 mouse assessed as increase in life span at 6.25 mg/kg, sc preinoculated with cells for 5 days followed by once daily compound administration for 21 days and measured on day 25 relative to vehicle in time to 1 cm^3 tumor", "format": "functional", "details": "HCT-116, 600 h, time 25 day"}, "HCT-116 [3]": {"test_system": "HCT-116", "assay": "Antitumor activity against human HCT-116 cells xenografted in nu/nu CD1 mouse assessed as reduction in tumor volume by measuring tumor to control ratio at 12.5 mg/kg, sc preinoculated with cells for 5 days followed by once daily compound administration for 21 days and measured on day 25", "format": "functional", "details": "time 25 day"}, "HCT-116 [4]": {"test_system": "HCT-116", "assay": "Antitumor activity against human HCT-116 cells xenografted in nu/nu CD1 mouse assessed as increase in life span at 12.5 mg/kg, sc preinoculated with cells for 5 days followed by once daily compound administration for 21 days and measured on day 25 relative to vehicle in time to 1 cm^3 tumor", "format": "functional", "details": "HCT-116, 600 h, time 25 day"}, "HCT-116 [5]": {"test_system": "HCT-116", "assay": "Antitumor activity against human HCT-116 cells xenografted in nu/nu CD1 mouse assessed as reduction in tumor volume by measuring tumor to control ratio at 6.25 mg/kg, sc preinoculated with cells for 5 days followed by once daily compound administration for 21 days and measured on day 25", "format": "functional", "details": "time 25 day"}, "[6]": {"assay": "Half-life in rat at 5 mg/kg, iv", "format": "ADME, organism-based", "details": "in vivo"}, "[7]": {"assay": "Clearance in rat at 5 mg/kg, iv", "format": "ADME, organism-based", "details": "in vivo"}, "[8]": {"assay": "Ratio of EC50 for inhibition of FTase in human HCT-15 cells expressing high level of P-gp1 using Ras as substrate assessed as inhibition of substrate post-translation processing in presence of 20% human serum to EC50 for inhibition of FTase in human HCT-15 cells expressing high level of P-gp1 using Ras as substrate assessed as inhibition of substrate post-translation processing in presence of 10% …", "details": "condition cancer"}, "[9]": {"assay": "Inhibition of FTase in human DLD-1 cells expressing moderate level of P-gp1 using Ras as substrate assessed as inhibition of substrate post-translation processing in presence of 10% FBS by immunoblot analysis", "format": "cell-based"}, "[10]": {"assay": "Inhibition of GGTase in H-Ras transformed mouse NIH3T3 cells using Rap 1A as substrate assessed as inhibition of substrate prenylation in presence of 10% bovine serum by immunoblot analysis", "format": "cell-based"}, "Mus musculus [11]": {"test_system": "Mus musculus", "assay": "Antiangiogenic activity in human recombinant VEGF-stimulated CF1 mouse corneal model assessed as inhibition of new blood growth area at 50 mg/kg, sc prestimulated with VEGF followed by compound administration and measured on day 7 by slit lamp biomicroscopic analysis relative to control", "format": "functional", "details": "CF1, 168 h, time 7 day"}, "HCT-116 [12]": {"test_system": "HCT-116", "assay": "Inhibition of anchorage-independent growth in human HCT-116 cells assessed as inhibition of colony formation incubated for 14 days in presence of 10% FBS by imaging based soft agar colony formation assay", "format": "functional, cell-based"}, "[13]": {"assay": "AUC in rat at 5 mg/kg, iv", "format": "ADME, organism-based", "details": "in vivo"}, "[14]": {"assay": "Ratio of EC50 for inhibition of FTase in human DLD-1 cells expressing moderate level of P-gp1 using Ras as substrate assessed as inhibition of substrate post-translation processing in presence of 20% human serum to EC50 for inhibition of FTase in human DLD-1 cells expressing moderate level of P-gp1 using Ras as substrate assessed as inhibition of substrate post-translation processing in presence …", "details": "condition cancer"}, "HCT-116 [15]": {"test_system": "HCT-116", "assay": "Antitumor activity against human HCT-116 cells xenografted in nu/nu CD1 mouse assessed as increase in life span at 100 mg/kg, sc preinoculated with cells for 5 days followed by once every 2 days compound administration for 11 times and measured on day 22 relative to vehicle in time to 1 cm3 tumor", "format": "functional", "details": "HCT-116, 528 h, time 22 day"}, "[16]": {"assay": "Cmax in rat at 5 mg/kg, po", "format": "ADME, organism-based", "details": "in vivo"}, "[17]": {"assay": "Inhibition of recombinant bovine GGTase I incubated for 30 min sin presence of [3H]FPP by SPA based Topcount scintillation plate reader analysis", "set-up": "species or system Bos taurus"}, "HCT-116 [18]": {"test_system": "HCT-116", "assay": "Antitumor activity against human HCT-116 cells xenografted in nu/nu CD1 mouse assessed as tumor volume at 100 mg/kg, sc preinoculated with cells for 5 days followed by once every 2 days compound administration for 11 times and measured on day 22 (reference value: 1557 +/- 370 mm^3)", "format": "functional", "details": "time 22 day"}, "HCT-116 [19]": {"test_system": "HCT-116", "assay": "Antitumor activity against human HCT-116 cells xenografted in nu/nu CD1 mouse assessed as tumor volume at 50 mg/kg, sc preinoculated with cells for 5 days followed by once every 2 days compound administration for 11 times and measured on day 22 (reference value: 1557 +/- 370 mm^3)", "format": "functional", "details": "time 22 day"}, "[20]": {"assay": "AUC in rat at 5 mg/kg, po", "format": "ADME, organism-based", "details": "in vivo"}, "[21]": {"assay": "Selectivity ratio of EC50 for inhibition of GGTase in H-Ras transformed mouse NIH3T3 cells using Rap 1A as substrate assessed as inhibition of substrate prenylation in presence of 10% bovine serum to EC50 for inhibition of FTase in H-Ras transformed mouse NIH3T3 cells using Ras as substrate assessed as inhibition of substrate prenylation in presence of 10% bovine serum", "details": "condition cancer"}, "[22]": {"assay": "Inhibition of FTase in human DLD-1 cells expressing moderate level of P-gp1 using Ras as substrate assessed as inhibition of substrate post-translation processing in presence of 10% human serum by immunoblot analysis", "format": "cell-based"}, "HCT-116 [23]": {"test_system": "HCT-116", "assay": "Antitumor activity against human HCT-116 cells xenografted in nu/nu CD1 mouse assessed as reduction in tumor volume by measuring test to control ratio at 50 mg/kg, sc preinoculated with cells for 5 days followed by once every 2 days compound administration for 11 times and measured on day 22", "format": "functional", "details": "time 22 day"}, "Mus musculus [24]": {"test_system": "Mus musculus", "assay": "Antiangiogenic activity in human recombinant bFGF-stimulated CF1 mouse corneal model assessed as inhibition of new blood growth area at 50 mg/kg, sc prestimulated with bFGF followed by compound administration and measured on day 5 by slit lamp biomicroscopic analysis relative to control", "format": "functional", "details": "CF1, 120 h, time 5 day"}, "HCT-116 [25]": {"test_system": "HCT-116", "assay": "Antitumor activity against human HCT-116 cells xenografted in nu/nu CD1 mouse assessed as reduction in tumor volume by measuring tumor to control ratio at 25 mg/kg, sc preinoculated with cells for 5 days followed by once daily compound administration for 21 days and measured on day 25", "format": "functional", "details": "time 25 day"}, "[26]": {"assay": "Half-life in dog at 2.5 mg/kg, po", "format": "ADME, organism-based, Canis lupus familiaris", "details": "in vivo"}}}
{"smiles": "Cn1cncc1[C@](O)(COc1ccc(C#N)cc1-c1ccc(OC(F)(F)F)cc1)c1ccc(C#N)cc1", "note": "[ABT-100]", "values": [{"measurement": "EC50", "setting": "[1]", "value": 0.2, "unit": "nM"}, {"measurement": "ILS at 6.25 mg/kg", "setting": "HCT-116 [2]", "value": 50, "unit": "%"}, {"measurement": "T/C", "setting": "HCT-116 [3]", "value": 39, "unit": "%"}, {"measurement": "ILS at 12.5 mg/kg", "setting": "HCT-116 [4]", "value": 61, "unit": "%"}, {"measurement": "T/C", "setting": "HCT-116 [5]", "value": 56, "unit": "%"}, {"measurement": "half-life", "setting": "[6]", "value": 2.3, "unit": "h"}, {"measurement": "clearance", "setting": "[7]", "value": 16.7, "unit": "mL/min/kg"}, {"measurement": "Ratio EC50", "setting": "[8]", "value": 1.5}, {"measurement": "EC50", "setting": "[9]", "value": 0.26, "unit": "nM"}, {"measurement": "EC50", "setting": "[10]", "value": "> 30000", "unit": "nM"}, {"measurement": "inhibition in vivo at 50 mg/kg", "setting": "Mus musculus [11]", "value": 25, "unit": "%"}, {"measurement": "EC50", "setting": "HCT-116 [12]; HCT-116, 336 h", "value": 6.1, "unit": "nM"}, {"measurement": "inhibition", "setting": "HCT-116 [12]; time 14.0 day", "value": "Dose-Dependent Effect"}, {"measurement": "AUC", "setting": "[13]", "value": 3010, "unit": "ng·h/mL"}, {"measurement": "Ratio EC50", "setting": "[14]", "value": 1.5}, {"measurement": "ILS at 100 mg/kg", "setting": "HCT-116 [15]", "value": 32, "unit": "%"}, {"measurement": "Cmax", "setting": "[16]", "value": 80, "unit": "ng/mL"}, {"measurement": "IC50", "setting": "[17]", "value": "> 10000", "unit": "nM"}, {"measurement": "Activity", "setting": "HCT-116 [18]", "value": 691, "unit": "mm3"}, {"measurement": "Activity", "setting": "HCT-116 [19]", "value": 873, "unit": "mm3"}, {"measurement": "AUC", "setting": "[20]", "value": 450, "unit": "ng·h/mL"}, {"measurement": "Ratio EC50", "setting": "[21]", "value": ">41000"}, {"measurement": "EC50", "setting": "[22]", "value": 0.4, "unit": "nM"}, {"measurement": "T/C", "setting": "HCT-116 [23]", "value": 65, "unit": "%"}, {"measurement": "inhibition in vivo at 50 mg/kg", "setting": "Mus musculus [24]", "value": 34, "unit": "%"}, {"measurement": "T/C", "setting": "HCT-116 [25]", "value": 32, "unit": "%"}, {"measurement": "half-life", "setting": "[26]", "value": 5.9, "unit": "h"}]}
